According to PubChem BioAssay (NCI):
Several values for one entry are separate records, joined by “and”; a condition that tells them apart may be missing. Equal entries are not always repeated.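 A five-concentration, 48-hour dose response in 96-well plates underlies each endpoint, interpolated linearly between surrounding concentrations. TGI denotes the concentration required for complete inhibition of growth.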

Tests used:
Experiment in all cases: inhibition of tumour cell growth, NCI panel, 48 h
MDA-MB-435 = system: MDA-MB-435
HCC-2998 colon = system: HCC-2998 colon
NCI/ADR-RES ovarian = system: NCI/ADR-RES ovarian
SF-268 CNS = system: SF-268 CNS
COLO 205 colon = system: COLO 205 colon
LOX IMVI melanoma = system: LOX IMVI melanoma
HCT-116 colon = system: HCT-116 colon
BT-549 breast = system: BT-549 breast
MOLT-4 leukemia = system: MOLT-4 leukemia
PC-3 prostate = system: PC-3 prostate
MDA-MB-231 breast = system: MDA-MB-231 breast
MCF7 breast = system: MCF7 breast
UACC-62 melanoma = system: UACC-62 melanoma
IGROV1 ovarian = system: IGROV1 ovarian
MDA-N = system: MDA-N
A549 NSCLC = system: A549 NSCLC
HCT-15 colon = system: HCT-15 colon
OVCAR-3 ovarian = system: OVCAR-3 ovarian
CCRF-CEM leukemia = system: CCRF-CEM leukemia
NCI-H460 lung = system: NCI-H460 lung
SN12C renal = system: SN12C renal
HOP-62 NSCLC = system: HOP-62 NSCLC
UACC-257 melanoma = system: UACC-257 melanoma
HS 578T breast = system: HS 578T breast
RXF 393 renal = system: RXF 393 renal
RPMI-8226 leukemia = system: RPMI-8226 leukemia
HT29 colon = system: HT29 colon
SR leukemia = system: SR leukemia
EKVX NSCLC = system: EKVX NSCLC
NCI-H226 lung = system: NCI-H226 lung
NCI-H522 lung = system: NCI-H522 lung
SNB-75 CNS = system: SNB-75 CNS
HOP-92 NSCLC = system: HOP-92 NSCLC
OVCAR-5 ovarian = system: OVCAR-5 ovarian
SK-MEL-28 melanoma = system: SK-MEL-28 melanoma
CAKI-1 renal = system: CAKI-1 renal
786-0 renal = system: 786-0 renal
SK-MEL-2 melanoma = system: SK-MEL-2 melanoma
SK-OV-3 ovarian = system: SK-OV-3 ovarian
SNB-19 CNS = system: SNB-19 CNS
HL-60(TB) leukemia = system: HL-60(TB) leukemia
T-47D breast = system: T-47D breast
U251 CNS = system: U251 CNS
M14 melanoma = system: M14 melanoma
OVCAR-4 ovarian = system: OVCAR-4 ovarian
NCI-H23 lung = system: NCI-H23 lung
A498 renal = system: A498 renal
ACHN renal = system: ACHN renal
SK-MEL-5 melanoma = system: SK-MEL-5 melanoma
SW-620 colon = system: SW-620 colon
OVCAR-8 ovarian = system: OVCAR-8 ovarian
K-562 leukemia = system: K-562 leukemia
KM12 colon = system: KM12 colon
TK-10 renal = system: TK-10 renal
SF-295 CNS = system: SF-295 CNS
DU-145 prostate = system: DU-145 prostate
SF-539 CNS = system: SF-539 CNS
DMS 273 small cell lung = system: DMS 273 small cell lung
HOP-18 NSCLC = system: HOP-18 NSCLC
MALME-3M melanoma = system: MALME-3M melanoma
XF 498 CNS = system: XF 498 CNS
SNB-78 CNS = system: SNB-78 CNS
M19-MEL melanoma = system: M19-MEL melanoma

SMILES: CCOC(=O)c1sc(=S)n(-c2ccc(Cl)cc2)c1-n1cc(-c2ccccc2)c(C#N)c1N
- TGI (MDA-MB-435): > 100 µM
- TGI (HCC-2998 colon): > 100 µM
- TGI (NCI/ADR-RES ovarian): 47.1 µM
- TGI (SF-268 CNS): 8.6 µM
- TGI (COLO 205 colon): > 100 µM
- TGI (LOX IMVI melanoma): > 100 µM
- TGI (HCT-116 colon): > 100 µM
- TGI (BT-549 breast): 48.1 µM
- TGI (MOLT-4 leukemia): > 100 µM
- TGI (PC-3 prostate): 27 µM
- TGI (MDA-MB-231 breast): 60.1 µM
- TGI (MCF7 breast): > 100 µM
- TGI (UACC-62 melanoma): 85.9 µM
- TGI (IGROV1 ovarian): 40.5 µM
- TGI (MDA-N): > 100 µM
- TGI (A549 NSCLC): 42.4 µM
- TGI (HCT-15 colon): > 100 µM
- TGI (OVCAR-3 ovarian): 32.6 µM
- TGI (CCRF-CEM leukemia): > 100 µM
- TGI (NCI-H460 lung): > 100 µM
- TGI (SN12C renal): 69.7 µM
- TGI (HOP-62 NSCLC): 14.7 µM
- TGI (UACC-257 melanoma): > 100 µM
- TGI (HS 578T breast): 14.5 µM
- TGI (RXF 393 renal): 64.3 µM
- TGI (RPMI-8226 leukemia): > 100 µM
- TGI (HT29 colon): > 100 µM
- TGI (SR leukemia): 46.7 µM
- TGI (EKVX NSCLC): 94.7 µM
- TGI (NCI-H226 lung): 43.5 µM
- TGI (NCI-H522 lung): 14.5 µM
- TGI (SNB-75 CNS): 53.6 µM
- TGI (HOP-92 NSCLC): 31.2 µM
- TGI (OVCAR-5 ovarian): > 100 µM
- TGI (SK-MEL-28 melanoma): > 100 µM
- TGI (CAKI-1 renal): > 100 µM
- TGI (786-0 renal): 22.9 µM
- TGI (SK-MEL-2 melanoma): 64 µM
- TGI (SK-OV-3 ovarian): 36 µM
- TGI (SNB-19 CNS): 41.6 µM
- TGI (HL-60(TB) leukemia): > 100 µM
- TGI (T-47D breast): 27.8 µM
- TGI (U251 CNS): 32.7 µM
- TGI (M14 melanoma): > 100 µM
- TGI (OVCAR-4 ovarian): 22.7 µM
- TGI (NCI-H23 lung): 70.6 µM
- TGI (A498 renal): 53.9 µM
- TGI (ACHN renal): 40.9 µM
- TGI (SK-MEL-5 melanoma): 84.5 µM
- TGI (SW-620 colon): > 100 µM
- TGI (OVCAR-8 ovarian): 27.1 µM
- TGI (K-562 leukemia): > 100 µM
- TGI (KM12 colon): > 100 µM
- TGI (TK-10 renal): 24.4 µM
- TGI (SF-295 CNS): 33.6 µM
- TGI (DU-145 prostate): 21.2 µM
- TGI (SF-539 CNS): 50.6 µM

SMILES: COc1ccc(C2=C[C@]3(O)CCCN3C[C@@H]2c2ccc(OC)c(OC)c2)cc1
- TGI (HCC-2998 colon): 0.101 µM
- TGI (COLO 205 colon): < 0.0001 µM
- TGI (HCT-116 colon): 0.00112 µM
- TGI (DMS 273 small cell lung): 0.000172 µM
- TGI (HOP-18 NSCLC): 0.000214 µM
- TGI (SN12C renal): > 100 µM
- TGI (MALME-3M melanoma): < 0.0001 µM
- TGI (RXF 393 renal): 0.0223 µM
- TGI (RPMI-8226 leukemia): 13.9 µM
- TGI (SR leukemia): < 0.0001 µM
- TGI (NCI-H226 lung): < 0.0001 µM
- TGI (XF 498 CNS): 0.449 µM
- TGI (NCI-H522 lung): < 0.0001 µM
- TGI (HOP-92 NSCLC): 0.000527 µM
- TGI (SK-MEL-28 melanoma): 0.00216 µM and 0.0197 µM
- TGI (CAKI-1 renal): 0.00162 µM
- TGI (SNB-78 CNS): 0.0338 µM
- TGI (M19-MEL melanoma): 0.000396 µM
- TGI (SK-MEL-2 melanoma): 0.000164 µM
- TGI (HL-60(TB) leukemia): < 0.0001 µM
- TGI (M14 melanoma): < 0.0001 µM
- TGI (OVCAR-4 ovarian): 0.0384 µM
- TGI (NCI-H23 lung): 0.000105 µM
- TGI (ACHN renal): 0.00185 µM
- TGI (SK-MEL-5 melanoma): < 0.0001 µM
- TGI (SW-620 colon): 0.00183 µM
- TGI (TK-10 renal): 0.611 µM
